Consider 5 compounds from US20110195116A1, “RATE MODULATED DELIVERY OF DRUGS FROM A COMPOSITE DELIVERY SYSTEM” (ADCOCK INGRAM HEALTHCARE PTY LIMITED, priority 2008, published 2011).

Where a name gives a salt, the structure may show the parent alone. Read-outs that look alike come from different tables or passages of the source.

The conditions of series [1]: cited from earlier work.
Series [2] can be described thus: dissolution study, USP paddle, phosphate buffer pH 6.8. The format is physicochemical. As for the experimental part: Initial dissolution characteristics of the combined APIs paracetamol, tramadol hydrochloride and diclofenac potassium; individual and combined cellulose and ethylene oxide-based polymers were determined by producing experimental batches of tablets. These were produced on a Manesty Single Punch Type F3 machine by direct compression and wet granulation techniques into monolithic matrix and multi-layered systems, as shown in FIG. 1. In situ crosslinking of various alginate, pectin and eudragit polymers with salts such as zinc gluconate was also investigated for an influence on the release characteristics of the solid dosage system.
(§1) Dissolution studies were conducted using a USP rotating paddle method (Hanson Virtual Instruments SR8 Plus Dissolution Test Stations) at 50 rpm in phosphate buffer pH 6.8 (900 mL, 37° C.±0.5° C.) for each formulation employing an autosampler (Hanson Research Auto Plus Maximiser and AutoPlus™ MultiFill™). Samples of 1.6 mL were withdrawn over a period of 12 to 20 hours and analysed via HPLC. Release profiles in simulated gastric fluid pH 1.2 without pepsin over a period of four hours were determined to identify any site-specific release induced by the polymers. The dissolution studies were performed under the conditions described in Table 1.

For series [3] the following is noted: in vivo; cited from earlier work.
Series [4] is described as follows: dissolution study, USP paddle, simulated gastric fluid pH 1.2 without pepsin. The format is physicochemical. The conditions noted are these: cellulose, polyethylene oxide and alginate polymer formulations. The protocol: as §1
The alginate and zinc gluconate addition was then included in a formulation where the HEC and HPC had been further reduced to 45.31 mg and 90.6 mg respectively (FIG. 16).
In order to establish the potential site-specific release potential of the polymeric dosage form, formulations consisting of cellulose, polyethylene oxide and alginate polymers were subjected to dissolution studies in simulated gastric fluid pH 1.2 without pepsin.

Where [5] appears, read: dosage form with pectin, alginate and eudragit polymers crosslinked with metallic salts.

In the case of `O=C(O)Cc1ccccc1Nc1c(Cl)cccc1Cl` [Diclofenac], the water solubility in series [1] (at pH 6.8) is 0.187%. Turning to `CC(=O)Nc1ccc(O)cc1` [Paracetamol], in series [2] (setting [5]), the release kinetics entry was “first-order”. For the same compound, the water solubility in series [1] (at 20° C.) is on record as 1.4%.

Turning to `COc1cccc(C2(O)CCCCC2CN(C)C)c1` (stereo not drawn) [Tramadol], the “elimination half-life (t1/2)” value in series [3] is 6 h. Turning to `O=C(O)Cc1ccccc1Nc1c(Cl)cccc1Cl` [diclofenac potassium], the release kinetics entry in series [2] (cellulose and polyethylene oxide-based formulation compressed as layered dosage form) was “zero-order”; in series [2] (cellulose and polyethylene oxide-based formulation compressed as monolithic matrix), “first-order”; in series [2] (setting [5]), “zero-order”. Also, the “release in simulated gastric fluid” value in series [4] is “not released”.

With `COc1cccc(C2(O)CCCCC2CN(C)C)c1` (stereo not drawn) [tramadol hydrochloride], in series [2] (setting [5]), the release kinetics entry is “first-order”.
